Literature values, collected in patent US20210315817A1, “C[…] SELF-EMULSION SYSTEMS FOR INFUSED COMPOSITIONS” (HEXO […]., priority 2018, published 2021).

Conditions: individual emulsifier HLB value

polyoxyethylene sorbitan monolaurate [Tween ® 20]
Emuls. HLB: 16.7
